This note sets out measurements from patent US20260078130A1, “NAMPT MODULATORS, PREPARATIONS, AND USES THEREOF” (SIRONAX LTD., priority 2022, published 2026).

SMILES strings stand for the structures. pEC50: −log10 of the molar value. Like-named read-outs stand apart in the source and are kept apart here. Some results are limits rather than exact numbers.

Assay [1] deals with T1, human enzyme NAMPT (full length) (Homo sapiens, UniProt P43490).
T1 construct: human enzyme NAMPT (full length)
Briefly: NMN fluorescence biochemical assay (stimulation of NMN synthesis by NAMPT). Particulars: for pEC50: concentration giving half-maximal activation, read-out: Enzymatic EC50; for Enzymatic Emax: fold change of maximal activation compared to DMSO. Put shortly: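 Full-length human NAMPT (100 nM) was preincubated 15 min at 37 °C with compound in 50 mM Tris-HCl pH 7.5, 10 mM MgCl2, 2 mM DTT, then reacted 1 h at 37 °C with 50 μM NAM, 100 μM PRPP, 4 mM ATP (stated solution concentrations). NMN was derivatised with acetophenone/KOH then formic acid and read at Ex/Em 382/445 nm; EC50 and Emax (fold over DMSO) reported.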

The subject of assay [2] is endogenous NAMPT in U2OS cells. Put plainly: Cellular NAD+ modulation assay (NAD/NADH-Glo, U2OS cells). The assay is classed as cell-based. Particulars: Homo sapiens; for maximal fold induction: read-out: Cellular Emax. Put shortly:
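Endogenous NAMPT stimulation in U2OS cells treated with compound dilution series for 24 h at 37 °C. Cells lysed with DTAB base, acid-treated 15 min at 60 °C, neutralized, NAD+ read by NAD/NADH-Glo luminescence after 40 min at room temperature. EC50 and Emax (fold over DMSO) derived.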

Setting [3] is: NMN synthesis by purified human NAMPT (100 nM).
Where [4] appears, read: 24 hours incubation with compound.
The mark [5] stands for this setting: NMN fluorescence assay, purified human NAMPT 100 nM.
Where [6] appears, read: 24 hours incubation, cellular NAD+.

T1 sequence (P43490 whole entry): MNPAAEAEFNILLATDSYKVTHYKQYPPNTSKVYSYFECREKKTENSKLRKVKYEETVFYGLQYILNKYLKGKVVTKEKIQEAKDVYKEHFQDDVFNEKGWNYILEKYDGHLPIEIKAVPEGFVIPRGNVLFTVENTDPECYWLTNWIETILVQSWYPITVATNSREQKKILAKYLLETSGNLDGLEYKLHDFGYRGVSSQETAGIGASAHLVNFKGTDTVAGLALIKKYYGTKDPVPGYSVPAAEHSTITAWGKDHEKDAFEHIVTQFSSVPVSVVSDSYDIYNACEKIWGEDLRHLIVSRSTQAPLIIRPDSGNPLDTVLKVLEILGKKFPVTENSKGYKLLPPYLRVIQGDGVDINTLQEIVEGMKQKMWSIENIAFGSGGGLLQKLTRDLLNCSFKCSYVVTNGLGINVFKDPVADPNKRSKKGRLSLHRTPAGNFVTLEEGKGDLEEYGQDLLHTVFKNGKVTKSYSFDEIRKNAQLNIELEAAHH

For orientation: pEC50 means the EC50 on a negative log10 scale, so that one unit is a factor of ten. As for `Cc1ccnc(C#N)c1CC1c2ccccc2C(=O)N1Cc1ccc2[nH]nnc2c1` (stereo not drawn) [Compound 284, 3-((2-((1H-benzo[d][1,2,3]triazol-5-yl)methyl)-3-oxoisoindolin-1-yl)methyl)-4-methylpicolinonitrile], the pEC50 in assay [1] (setting [3]) was greater than 6.30. Also, the “Enzymatic Emax” value in assay [1] is listed as “A (A>3)”. In addition, in assay [2] (setting [4]), the pEC50 was greater than 6.30 and the maximal fold induction is 1.2 to 1.5.
As for `Cn1ncc(Cl)c1CC1c2cc(N3CCOCC3)ccc2C(=O)N1Cc1ccc2[nH]nnc2c1` (stereo not drawn) [Compound 324, 2-((1H-benzo[d][1,2,3]triazol-5-yl)methyl)-3-((4-chloro-1-methyl-1H-pyrazol-5-yl)methyl)-5-morpholinoisoindolin-1-one], in assay [1] (setting [5]), the pEC50 was greater than 6.30. Moreover, the “Enzymatic Emax” value in assay [1] is recorded as “A (A>3)”. For the same compound, in assay [2] (setting [6]), the pEC50 is greater than 6.30 and the maximal fold induction was greater than 1.5.
In the case of `Cn1cnc(C#N)c1CC1c2ccccc2C(=O)N1Cc1ccc2[nH]nnc2c1` (stereo not drawn) [Compound 315, 5-((2-((1H-benzo[d][1,2,3]triazol-5-yl)methyl)-3-oxoisoindolin-1-yl)methyl)-1-methyl-1H-imidazole-4-carbonitrile], the pEC50 in assay [1] (setting [3]) is 5.30 to 6.30. Besides, the “Enzymatic Emax” value in assay [1] was “A (A>3)”. In addition, in assay [2] (setting [4]), the pEC50 is 4.30 to 5.30 and the maximal fold induction fell in the range of 1.2 to 1.5.
Take `CC1c2cc(NC3CCOCC3)ccc2C(=O)N1Cc1ccc2[nH]c(=O)oc2c1` (stereo not drawn) [Compound 95, 6-((3-methyl-1-oxo-5-((tetrahydro-2H-pyran-4-yl)amino)isoindolin-2-yl)methyl)benzo[d]oxazol-2(3H)-one]: in assay [1] (setting [3]), the pEC50 was 5.30 to 6.30. Moreover, the “Enzymatic Emax” value in assay [1] is “B (3≥B>2)”. In assay [2] (setting [4]), the pEC50 is 4.30 to 5.30 and the maximal fold induction was greater than 1.5.
As for `COc1ccc(CN2C(=O)c3ccccc3C2Cc2c(Cl)c(Cl)nn2C)cc1` (stereo not drawn) [Compound 566, 3-((3,4-dichloro-1-methyl-1H-pyrazol-5-yl)methyl)-2-(4-methoxybenzyl)isoindolin-1-one], the pEC50 in assay [1] (setting [5]) is 5.30 to 6.30. The “Enzymatic Emax” value in assay [1] was “A (A>3)”. In assay [2] (setting [6]), the pEC50 was greater than 6.30 and the maximal fold induction is greater than 1.5.
For `Cn1ncc(Cl)c1CC1c2ccccc2C(=O)N1Cc1c[nH]nn1` (stereo not drawn) [Compound 637, 2-((1H-1,2,3-triazol-4-yl)methyl)-3-((4-chloro-1-methyl-1H-pyrazol-5-yl)methyl)isoindolin-1-one] the same measures were no more than 5.30, “B (3≥B>2)”, greater than 6.30 and 1.2 to 1.5.
Regarding `Cn1ncc(Cl)c1CC1c2ccccc2C(=O)N1Cc1ccc2[nH]nnc2c1` (stereo not drawn) [Compound 279, 2-((1H-benzo[d][1,2,3]triazol-5-yl)methyl)-3-((4-chloro-1-methyl-1H-pyrazol-5-yl)methyl) isoindolin-1-one], in assay [1] (setting [3]), the negative logarithm of the EC50 (pEC50) was greater than 6.30. Also, the “Enzymatic Emax” value in assay [1] is recorded as “B (3≥B>2)”. Moreover, in assay [2] (setting [4]), the negative logarithm of the EC50 (pEC50) was greater than 6.30 and the maximal fold induction is greater than 1.5.
`COC1CC2(CC(CN3C(=O)c4ccccc4C3Cc3c(Cl)cnn3C)C2)C1` (stereo not drawn) [Compound 599, 3-((4-chloro-1-methyl-1H-pyrazol-5-yl)methyl)-2-((6-methoxyspiro[3.3]heptan-2-yl)methyl)isoindolin-1-one]: the pEC50 in assay [1] (setting [5]) is no more than 5.30. The “Enzymatic Emax” value in assay [1] is listed as “C (2≥C)”. Moreover, in assay [2] (setting [6]), the pEC50 was 5.30 to 6.30 and the maximal fold induction was in the range of 1.2 to 1.5.
With `O=C1c2ccccc2C(Cc2ccccc2Cl)N1Cc1ccc2[nH]c(=O)oc2c1` (stereo not drawn) [Compound 157, 6-((1-(2-chlorobenzyl)-3-oxoisoindolin-2-yl)methyl)benzo[d]oxazol-2(3H)-one], the pEC50 in assay [1] (setting [3]) was greater than 6.30. Further, the “Enzymatic Emax” value in assay [1] is on record as “A (A>3)”. Besides, in assay [2] (setting [4]), the negative-log EC50 (pEC50) was 5.30 to 6.30 and the maximal fold induction is greater than 1.5.
The like results for `O=C1c2ccccc2C(Cc2ccccc2)N1Cc1ccc2[nH]c(=O)oc2c1` (stereo not drawn) [Compound 106, 6-((1-benzyl-3-oxoisoindolin-2-yl)methyl)benzo[d]oxazol-2(3H)-one] were, in that order, 5.30 to 6.30, “A (A>3)”, 5.30 to 6.30 and 1.2 to 1.5.
For `O=C1c2ccc(N3CCCC3)cc2CN1Cc1ccc2[nH]c(=O)oc2c1` [Compound 300, 6-((1-oxo-5-(pyrrolidin-1-yl)isoindolin-2-yl)methyl)benzo[d]oxazol-2(3H)-one] the same measures were no more than 5.30, “C (2≥C)”, 4.30 to 5.30 and 1.2 to 1.5.
On to `Cn1nc(F)c(Cl)c1CC1c2ccccc2C(=O)N1CC1CC2(CNC(=O)O2)C1` (stereo not drawn) [Compound 547, 2-((1-((4-chloro-3-fluoro-1-methyl-1H-pyrazol-5-yl)methyl)-3-oxoisoindolin-2-yl)methyl)-5-oxa-7-azaspiro[3.4]octan-6-one], for which the pEC50 in assay [1] (setting [5]) is 5.30 to 6.30. In addition, the “Enzymatic Emax” value in assay [1] is “A (A>3)”. In assay [2] (setting [6]), the pEC50 was greater than 6.30 and the maximal fold induction was greater than 1.5.
Turning to `Cc1n[nH]cc1C#CCN1C(=O)c2ccccc2C1Cc1c(Cl)cnn1C` (stereo not drawn) [Compound 478, 3-((4-chloro-1-methyl-1H-pyrazol-5-yl)methyl)-2-(3-(3-methyl-1H-pyrazol-4-yl)prop-2-yn-1-yl)isoindolin-1-one], in assay [1] (setting [5]), the negative logarithm of the EC50 (pEC50) is 5.30 to 6.30. Besides, in assay [1], the “Enzymatic Emax” value is “B (3≥B>2)”. Moreover, in assay [2] (setting [6]), the negative logarithm of the EC50 (pEC50) is 5.30 to 6.30 and the maximal fold induction is greater than 1.5.
Take `CC1c2cc(C3CCCC3)ccc2C(=O)N1Cc1ccc2[nH]c(=O)oc2c1` (single isomer, unassigned) [Compound 304]: the negative logarithm of the EC50 (pEC50) in assay [1] (setting [3]) and in assay [2] (setting [4]) was 5.30 to 6.30 throughout. The “Enzymatic Emax” value in assay [1] is given as “C (2≥C)”. The maximal fold induction in assay [2] (setting [4]) lay in the range of 1.2 to 1.5.
Take `N#Cc1ccc(Br)c(CC2c3ccccc3C(=O)N2Cc2ccc3[nH]c(=O)oc3c2)n1` (stereo not drawn) [Compound 221, 5-bromo-6-((3-oxo-2-((2-oxo-2,3-dihydrobenzo[d]oxazol-6-yl)methyl)isoindolin-1-yl)methyl)picolinonitrile]: in assay [1] (setting [3]), the pEC50 was greater than 6.30. The “Enzymatic Emax” value in assay [1] is “A (A>3)”. Further, in assay [2] (setting [4]), the pEC50 is greater than 6.30 and the maximal fold induction was greater than 1.5.
Turning to `O=C1c2ccccc2C(Cc2ncccc2Br)N1Cc1ccc2[nH]c(=O)oc2n1` (stereo not drawn) [Compound 241, 5-((1-((3-bromopyridin-2-yl)methyl)-3-oxoisoindolin-2-yl)methyl)oxazolo[5,4-b]pyridin-2(1H)-one], the pEC50 in assay [1] (setting [3]) is 5.30 to 6.30. The “Enzymatic Emax” value in assay [1] is given as “A (A>3)”. For the same compound, in assay [2] (setting [4]), the pEC50 was 5.30 to 6.30 and the maximal fold induction was in the range of 1.2 to 1.5.
With `Cc1cccnc1C[C@H]1c2ccccc2C(=O)N1Cc1ccc2[nH]c(=O)oc2c1` [Compound 178, (S)-6-((1-((3-methylpyridin-2-yl)methyl)-3-oxoisoindolin-2-yl)methyl)benzo[d]oxazol-2(3H)-one], in assay [1] (setting [3]), the pEC50 is greater than 6.30. In addition, the “Enzymatic Emax” value in assay [1] was “A (A>3)”. Also, in assay [2] (setting [4]), the pEC50 is greater than 6.30 and the maximal fold induction is greater than 1.5.
Take `C#Cc1cccnc1CC1c2ccccc2C(=O)N1Cc1ccc2[nH]c(=O)oc2c1` (stereo not drawn) [Compound 215, 6-((1-((3-ethynylpyridin-2-yl)methyl)-3-oxoisoindolin-2-yl)methyl)benzo[d]oxazol-2(3H)-one]: in assay [1] (setting [3]), the pEC50 was 5.30 to 6.30. Also, the “Enzymatic Emax” value in assay [1] is reported as “A (A>3)”. Moreover, in assay [2] (setting [4]), the pEC50 was greater than 6.30 and the maximal fold induction is greater than 1.5.
